Reference: ChEMBL document CHEMBL3885881, “DrugMatrix”

Organism: Rattus norvegicus
Assay: DrugMatrix - Regimen: Daily Repeat
Format: toxicity, organism-based, Sprague-Dawley
Set-up: regimen Daily Repeat, gender Male, age 6-8 weeks
Details: in vivo, po, route oral GAVAGE, vehicle 100 % WATER; for URIC ACID / ALANINE AMINOTRANSFERASE / ALKALINE PHOSPHATASE / ASPARTATE AMINOTRANSFERASE / BLOOD UREA NITROGEN / CARBON DIOXIDE / CHLORIDE / CHOLESTEROL / CREATINE PHOSPHOKINASE / CREATININE / GLUCOSE / LACTATE DEHYDROGENASE / LIPASE / PHOSPHORUS / POTASSIUM / SODIUM / TOTAL BILIRUBIN / TOTAL PROTEIN: tissue Plasma; for ABSOLUTE BASOPHIL / ABSOLUTE EOSINOPHIL / ABSOLUTE LYMPHOCYTE / ABSOLUTE MONOCYTE / ABSOLUTE SEGMENTED NEUTROPHIL / BASOPHIL / EOSINOPHIL / ERYTHROCYTE COUNT / HEMATOCRIT / HEMOGLOBIN / LEUKOCYTE COUNT / LYMPHOCYTE / MEAN CORPUSCULAR HEMOGLOBIN / MEAN CORPUSCULAR HEMOGLOBIN CONCENTRATION / MEAN CORPUSCULAR VOLUME / MONOCYTE / NEUTROPHIL / NUCLEATED RED BLOOD CELLS: tissue Blood
[1] = 18 mg/kg, 120 h, dose level Low, time 5 day
[2] = 73 mg/kg, 72 h, dose level High, time 3 day
[3] = 73 mg/kg, 120 h, dose level High, time 5 day

`CN(C)CCCN1c2ccccc2Sc2ccc(Cl)cc21` [CHLORPROMAZINE] was tested, and the “URIC ACID” value (18 mg/kg, 72 h, dose level Low, time 3 day) was 0.4 mg/dL, the “ABSOLUTE BASOPHIL” value [1] was 0 CELLS/uL and the “ABSOLUTE EOSINOPHIL” value [1] was 76 CELLS/uL. For the same compound, the “ABSOLUTE LYMPHOCYTE” value [1] was 7709.67 CELLS/uL, the “ABSOLUTE MONOCYTE” value [1] was 216 CELLS/uL and the “ABSOLUTE SEGMENTED NEUTROPHIL” value [1] was 898.33 CELLS/uL. For the same compound, the BASOPHIL [1] was 0%, the EOSINOPHIL [1] was 0.67% and the “ERYTHROCYTE COUNT” value [1] was 5.62 x10E6/uL. For the same compound, the HEMATOCRIT [1] was 36.23%, the HEMOGLOBIN [1] was 13.87 G/DL and the “LEUKOCYTE COUNT” value [1] was 8.9 x10E3/uL. For the same compound, the LYMPHOCYTE [1] was 87%, the “MEAN CORPUSCULAR HEMOGLOBIN” value [1] was 24.7 pg and the “MEAN CORPUSCULAR HEMOGLOBIN CONCENTRATION” value [1] was 38.27 G/DL. For the same compound, the “MEAN CORPUSCULAR VOLUME” value [1] was 64.5 fL, the MONOCYTE [1] was 2.33% and the NEUTROPHIL [1] was 10%. The “NUCLEATED RED BLOOD CELLS” value [1] was 0 /100WBC, the “ALANINE AMINOTRANSFERASE” value [1] was 54.67 u/L and the “ALKALINE PHOSPHATASE” value [1] was 255.67 u/L. The “ASPARTATE AMINOTRANSFERASE” value [1] was 80.33 u/L, the “BLOOD UREA NITROGEN” value [1] was 14.33 mg/dL and the “CARBON DIOXIDE” value [1] was 29.33 mmol/L. The CHLORIDE [1] was 102.33 MEQ/L, the CHOLESTEROL [1] was 84.67 mg/dL and the “CREATINE PHOSPHOKINASE” value [1] was 218.67 u/L. For the same compound, the CREATININE [1] was 0.12 mg/dL, the GLUCOSE [1] was 141.33 mg/dL and the “LACTATE DEHYDROGENASE” value [1] was 69.67 u/L. For the same compound, the LIPASE [1] was 9 u/L, the PHOSPHORUS [1] was 11.6 mg/dL and the POTASSIUM [1] was 5.95 MEQ/L. The SODIUM [1] was 145.57 MEQ/L, the “TOTAL BILIRUBIN” value [1] was 0.13 mg/dL and the “URIC ACID” value [1] was 0.6 mg/dL. The “ABSOLUTE BASOPHIL” value [2] was 0 CELLS/uL, the “ABSOLUTE EOSINOPHIL” value [2] was 0 CELLS/uL and the “ABSOLUTE LYMPHOCYTE” value [2] was 7383 CELLS/uL. The “ABSOLUTE MONOCYTE” value [2] was 208 CELLS/uL, the “ABSOLUTE SEGMENTED NEUTROPHIL” value [2] was 342.33 CELLS/uL and the BASOPHIL [2] was 0%. For the same compound, the EOSINOPHIL [2] was 0%, the “ERYTHROCYTE COUNT” value [2] was 5.6 x10E6/uL and the HEMATOCRIT [2] was 35.37%. The HEMOGLOBIN [2] was 13.77 G/DL, the “LEUKOCYTE COUNT” value [2] was 7.93 x10E3/uL and the LYMPHOCYTE [2] was 92.33%. For the same compound, the “MEAN CORPUSCULAR HEMOGLOBIN” value [2] was 24.63 pg, the “MEAN CORPUSCULAR HEMOGLOBIN CONCENTRATION” value [2] was 38.93 G/DL and the “MEAN CORPUSCULAR VOLUME” value [2] was 63.17 fL. The MONOCYTE [2] was 3%, the NEUTROPHIL [2] was 4.67% and the “NUCLEATED RED BLOOD CELLS” value [2] was 0 /100WBC. For the same compound, the “ALANINE AMINOTRANSFERASE” value [2] was 56 u/L, the “ALKALINE PHOSPHATASE” value [2] was 291.33 u/L and the “ASPARTATE AMINOTRANSFERASE” value [2] was 84 u/L. The “BLOOD UREA NITROGEN” value [2] was 14.33 mg/dL, the “CARBON DIOXIDE” value [2] was 37.67 mmol/L and the CHLORIDE [2] was 101 MEQ/L. For the same compound, the CHOLESTEROL [2] was 99 mg/dL, the “CREATINE PHOSPHOKINASE” value [2] was 176.33 u/L and the CREATININE [2] was 0.27 mg/dL. The GLUCOSE [2] was 154.67 mg/dL, the “LACTATE DEHYDROGENASE” value [2] was 52.67 u/L and the LIPASE [2] was 12 u/L. The PHOSPHORUS [2] was 8.2 mg/dL, the POTASSIUM [2] was 5.02 MEQ/L and the SODIUM [2] was 145.37 MEQ/L. For the same compound, the “TOTAL BILIRUBIN” value [2] was 0.13 mg/dL, the “TOTAL PROTEIN” value [2] was 5.7 G/DL and the “URIC ACID” value [2] was 0.4 mg/dL. The “ABSOLUTE BASOPHIL” value [3] was 0 CELLS/uL, the “ABSOLUTE EOSINOPHIL” value [3] was 148.67 CELLS/uL and the “ABSOLUTE LYMPHOCYTE” value [3] was 10432 CELLS/uL. For the same compound, the “ABSOLUTE MONOCYTE” value [3] was 268.67 CELLS/uL, the “ABSOLUTE SEGMENTED NEUTROPHIL” value [3] was 584 CELLS/uL and the BASOPHIL [3] was 0%. For the same compound, the EOSINOPHIL [3] was 1.33%, the “ERYTHROCYTE COUNT” value [3] was 6.19 x10E6/uL and the HEMATOCRIT [3] was 38.2%. For the same compound, the HEMOGLOBIN [3] was 14.83 G/DL, the “LEUKOCYTE COUNT” value [3] was 11.43 x10E3/uL and the LYMPHOCYTE [3] was 91%. For the same compound, the “MEAN CORPUSCULAR HEMOGLOBIN” value [3] was 23.93 pg, the “MEAN CORPUSCULAR HEMOGLOBIN CONCENTRATION” value [3] was 38.87 G/DL and the “MEAN CORPUSCULAR VOLUME” value [3] was 61.63 fL. The MONOCYTE [3] was 2.33%, the NEUTROPHIL [3] was 5.33% and the “NUCLEATED RED BLOOD CELLS” value [3] was 0 /100WBC. For the same compound, the “ALANINE AMINOTRANSFERASE” value [3] was 61.67 u/L, the “ALKALINE PHOSPHATASE” value [3] was 321.67 u/L and the “ASPARTATE AMINOTRANSFERASE” value [3] was 110.67 u/L. For the same compound, the “BLOOD UREA NITROGEN” value [3] was 24.67 mg/dL, the “CARBON DIOXIDE” value [3] was 27.67 mmol/L and the CHLORIDE [3] was 103.33 MEQ/L. For the same compound, the CHOLESTEROL [3] was 87.33 mg/dL, the “CREATINE PHOSPHOKINASE” value [3] was 231.67 u/L and the CREATININE [3] was 0.25 mg/dL. The GLUCOSE [3] was 142.33 mg/dL, the “LACTATE DEHYDROGENASE” value [3] was 88.67 u/L and the LIPASE [3] was 10.33 u/L. For the same compound, the PHOSPHORUS [3] was 9.27 mg/dL, the POTASSIUM [3] was 5.11 MEQ/L and the SODIUM [3] was 145.67 MEQ/L. The “TOTAL BILIRUBIN” value [3] was 0.17 mg/dL, the “TOTAL PROTEIN” value [3] was 6.07 G/DL and the “URIC ACID” value [3] was 0.43 mg/dL.
